Test results published in PubChem BioAssay AID256 (DTP/NCI, 2004).
Several values for one entry are separate records, joined by “and”; a condition that tells them apart may be missing. Identical values can stand only once. Inconclusive results and toxic doses are left out.

Tested on: CD2F1 mice, L1210 leukemia ip, survival T/C
Test: NCI In Vivo Anticancer Drug Screen. Data for tumor model L1210 Leukemia (intraperitoneal) in CD2F1 (CDF1) mice
Settings: higher = longer survival
In short: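 Tumor-bearing mice (transplanted tumor) were split into treated and vehicle control groups, and the measured endpoint of each treated group was divided by that of its vehicle controls.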

[1] = endpoint: mean survival time, dose: 100.0 mg/kg/injection, schedule: Q04DX003 (ip), vehicle: saline with Tween-80
[2] = endpoint: mean survival time, dose: 200.0 mg/kg/injection, schedule: Q04DX003 (ip), vehicle: saline with Tween-80
[3] = endpoint: mean survival time, dose: 400.0 mg/kg/injection, schedule: Q04DX003 (ip), vehicle: saline with Tween-80
[4] = endpoint: mean survival time, dose: 50.0 mg/kg/injection, schedule: Q04DX002 (ip), vehicle: saline with Tween-80
[5] = endpoint: mean survival time, dose: 100.0 mg/kg/injection, schedule: Q04DX002 (ip), vehicle: saline with Tween-80
[6] = endpoint: mean survival time, dose: 200.0 mg/kg/injection, schedule: Q04DX002 (ip), vehicle: saline with Tween-80
[7] = endpoint: mean survival time, dose: 400.0 mg/kg/injection, schedule: Q04DX002 (ip), vehicle: saline with Tween-80

In the case of `COC12C(COC(N)=O)C3=C(C(=O)C(C)=C(N4CCN(C)CC4)C3=O)N1CC1NC12` (centres undefined), the T/C (endpoint: median survival time, dose: 1.5 mg/kg/injection, schedule: Q01DX001 (ip), vehicle: water) is reported as 155 % of control, the T/C (endpoint: median survival time, dose: 3.0 mg/kg/injection, schedule: Q01DX001 (ip), vehicle: water) is reported as 124 % of control and the T/C (endpoint: median survival time, dose: 6.0 mg/kg/injection, schedule: Q01DX001 (ip), vehicle: water) is reported as 87 % of control. The T/C (endpoint: median survival time, dose: 375.0 micrograms/kg/injection, schedule: Q01DX001 (ip), vehicle: water) was 102 % of control and 106 % of control, the T/C (endpoint: median survival time, dose: 750.0 micrograms/kg/injection, schedule: Q01DX001 (ip), vehicle: water) was 90 % of control and 102 % of control and the T/C (endpoint: median survival time, dose: 1500.0 micrograms/kg/injection, schedule: Q01DX001 (ip), vehicle: water) was 101 % of control and 106 % of control. For the same molecule, the T/C (endpoint: median survival time, dose: 3000.0 micrograms/kg/injection, schedule: Q01DX001 (ip), vehicle: water) was 94 % of control and 106 % of control and the T/C (endpoint: median survival time, dose: 6000.0 micrograms/kg/injection, schedule: Q01DX001 (ip), vehicle: water) was 102 % of control and 105 % of control.

In the case of `CCCCCc1ccc(C(C)=O)cc1`, the T/C (endpoint: mean survival time, dose: 100.0 mg/kg/injection, schedule: Q01DX009 (ip), vehicle: saline with Tween-80) is reported as 103 % of control, the T/C (endpoint: mean survival time, dose: 200.0 mg/kg/injection, schedule: Q01DX009 (ip), vehicle: saline with Tween-80) is reported as 103 % of control and the T/C (endpoint: mean survival time, dose: 400.0 mg/kg/injection, schedule: Q01DX009 (ip), vehicle: saline with Tween-80) is reported as 88 % of control.

In the case of `CN(C)C=Nc1c(Cl)cccc1Cl`, the T/C (endpoint: mean survival time, dose: 50.0 mg/kg/injection, schedule: Q01DX001 (ip), vehicle: saline) is reported as 100 % of control, the T/C (endpoint: mean survival time, dose: 100.0 mg/kg/injection, schedule: Q01DX001 (ip), vehicle: saline) is reported as 103 % of control and the T/C (endpoint: mean survival time, dose: 200.0 mg/kg/injection, schedule: Q01DX001 (ip), vehicle: saline) is reported as 97 % of control. The T/C (endpoint: mean survival time, dose: 400.0 mg/kg/injection, schedule: Q01DX001 (ip), vehicle: saline) was 106 % of control.

In the case of `O=C(NCCCl)Nc1ccc(O)cc1`, the T/C (endpoint: mean survival time, dose: 100.0 mg/kg/injection, schedule: Q01DX001 (ip), vehicle: carboxymethylcellulose (CMC)) is reported as 101 % of control, the T/C (endpoint: mean survival time, dose: 200.0 mg/kg/injection, schedule: Q01DX001 (ip), vehicle: carboxymethylcellulose (CMC)) is reported as 98 % of control and the T/C (endpoint: mean survival time, dose: 400.0 mg/kg/injection, schedule: Q01DX001 (ip), vehicle: carboxymethylcellulose (CMC)) is reported as 104 % of control.

`OCc1cn2c(c1CO)CCC2` was tested, and the T/C (endpoint: mean survival time, dose: 12.5 mg/kg/injection, schedule: Q01DX009 (ip), vehicle: water) was 105 % of control, the T/C (endpoint: mean survival time, dose: 22.0 mg/kg/injection, schedule: Q01DX009 (ip), vehicle: other) was 108 % of control and the T/C (endpoint: mean survival time, dose: 25.0 mg/kg/injection, schedule: Q01DX009 (ip), vehicle: water) was 113 % of control. For the same molecule, the T/C (endpoint: mean survival time, dose: 33.0 mg/kg/injection, schedule: Q01DX009 (ip), vehicle: other) was 113 % of control, the T/C (endpoint: mean survival time, dose: 50.0 mg/kg/injection, schedule: Q01DX009 (ip), vehicle: other) was 123 % of control and the T/C (endpoint: mean survival time, dose: 75.0 mg/kg/injection, schedule: Q01DX009 (ip), vehicle: other) was 105 % of control.

With `CCCCCCCCCCCCNC=O` the T/C (endpoint: mean survival time, dose: 25.0 mg/kg/injection, schedule: Q01DX009 (ip), vehicle: saline) was 100 % of control, the T/C (endpoint: mean survival time, dose: 50.0 mg/kg/injection, schedule: Q01DX009 (ip), vehicle: saline) was 103 % of control and the T/C (endpoint: mean survival time, dose: 100.0 mg/kg/injection, schedule: Q01DX009 (ip), vehicle: saline) was 106 % of control.

In the case of `CC(Br)C(=O)NC(C)C(=O)O` (centres undefined), the T/C [1] is reported as 92 % of control, the T/C [2] is reported as 108 % of control and the T/C [3] is reported as 121 % of control.

With `NC(=O)C1CC=CCC1` (centres undefined) the T/C (endpoint: mean survival time, dose: 25.0 mg/kg/injection, schedule: Q04DX002 (ip), vehicle: saline with Tween-80) was 110 % of control, the T/C [4] was 98 % of control and the T/C [5] was 94 % of control. For the same molecule, the T/C [6] was 105 % of control.

`Fc1ccc2c(c1)C(Br)c1ccccc1-2` (centres undefined) was tested, and the T/C (endpoint: mean survival time, dose: 6.25 mg/kg/injection, schedule: Q01DX009 (ip), vehicle: saline with Tween-80) was 96 % of control, the T/C (endpoint: mean survival time, dose: 12.5 mg/kg/injection, schedule: Q01DX009 (ip), vehicle: saline with Tween-80) was 96 % of control and the T/C (endpoint: mean survival time, dose: 25.0 mg/kg/injection, schedule: Q01DX009 (ip), vehicle: saline with Tween-80) was 105 % of control. The T/C [1] was 108 % of control, the T/C [2] was 88 % of control and the T/C [3] was 97 % of control.

In the case of `O=C(O)CCS(=O)(=O)CCC(=O)O`, the T/C [1] is reported as 92 % of control, the T/C [2] is reported as 93 % of control and the T/C [3] is reported as 90 % of control.

In the case of `O=c1[nH]cnc2ccccc12`, the T/C [5] is reported as 96 % of control, the T/C [6] is reported as 101 % of control and the T/C [7] is reported as 104 % of control.

For `Nc1ccc(OC(=O)Oc2ccc(N)cc2)cc1`, the T/C (endpoint: mean survival time, dose: 18.75 mg/kg/injection, schedule: Q06HX068 (ip), vehicle: other) was 87 % of control, the T/C (endpoint: mean survival time, dose: 18.75 mg/kg/injection, schedule: Q#A X034 (ip), vehicle: other) was 100 % of control and the T/C (endpoint: mean survival time, dose: 37.5 mg/kg/injection, schedule: Q01DX017 (ip), vehicle: other) was 106 % of control. The T/C (endpoint: mean survival time, dose: 37.5 mg/kg/injection, schedule: Q#A X034 (ip), vehicle: other) was 103 % of control, the T/C (endpoint: mean survival time, dose: 75.0 mg/kg/injection, schedule: Q01DX001 (ip), vehicle: other) was 100 % of control and the T/C (endpoint: mean survival time, dose: 75.0 mg/kg/injection, schedule: Q01DX005 (ip), vehicle: other) was 112 % of control. The T/C (endpoint: mean survival time, dose: 150.0 mg/kg/injection, schedule: Q01DX001 (ip), vehicle: other) was 102 % of control, the T/C (endpoint: mean survival time, dose: 150.0 mg/kg/injection, schedule: Q01DX017 (ip), vehicle: other) was 154 % of control and the T/C (endpoint: mean survival time, dose: 150.0 mg/kg/injection, schedule: Q#A X034 (ip), vehicle: other) was 155 % of control. The T/C (endpoint: mean survival time, dose: 300.0 mg/kg/injection, schedule: Q01DX001 (ip), vehicle: other) was 103 % of control.

In the case of `COc1ccc2cc1Oc1ccc(cc1)C[C@@H]1c3cc(c(OC)cc3CCN1C)Oc1c(OC)c(OC)cc3c1[C@H](C2)N(C)CC3`, the T/C [4] is reported as 94 % of control, the T/C [5] is reported as 94 % of control and the T/C [6] is reported as 94 % of control. For the same molecule, the T/C [7] was 90 % of control.

`COc1ccc(P(=S)(S)c2ccc(OC)cc2)cc1` was tested, and the T/C (endpoint: mean survival time, dose: 80.5 mg/kg/injection, schedule: Q01DX009 (ip), vehicle: saline with Tween-80) was 95 % of control, the T/C (endpoint: mean survival time, dose: 161.0 mg/kg/injection, schedule: Q01DX009 (ip), vehicle: saline with Tween-80) was 93 % of control and the T/C (endpoint: mean survival time, dose: 322.0 mg/kg/injection, schedule: Q01DX009 (ip), vehicle: saline with Tween-80) was 93 % of control.

With `CC1CCC(C(C)C)C(OC(=O)N/N=C/N(C)C)C1` (centres undefined) the T/C (endpoint: mean survival time, dose: 100.0 mg/kg/injection, schedule: Q01DX009 (ip), vehicle: other) was 95 % of control and the T/C (endpoint: mean survival time, dose: 200.0 mg/kg/injection, schedule: Q01DX009 (ip), vehicle: other) was 119 % of control.

`NNc1ncnc2c1ccn2C1OC(CO)C(O)C1O` (centres undefined) was tested, and the T/C (endpoint: mean survival time, dose: 35.0 mg/kg/injection, schedule: Q01DX001 (ip), vehicle: saline) was 116 % of control, the T/C (endpoint: mean survival time, dose: 53.0 mg/kg/injection, schedule: Q01DX001 (ip), vehicle: saline) was 110 % of control and the T/C (endpoint: mean survival time, dose: 80.0 mg/kg/injection, schedule: Q01DX001 (ip), vehicle: saline) was 112 % of control. For the same molecule, the T/C (endpoint: mean survival time, dose: 120.0 mg/kg/injection, schedule: Q01DX001 (ip), vehicle: saline) was 116 % of control.

In the case of `O=C(O)c1cc(Cl)nc(Cl)c1`, the T/C (endpoint: mean survival time, dose: 100.0 mg/kg/injection, schedule: Q01DX001 (ip), vehicle: saline with Tween-80) is reported as 94 % of control, the T/C (endpoint: mean survival time, dose: 200.0 mg/kg/injection, schedule: Q01DX001 (ip), vehicle: saline with Tween-80) is reported as 97 % of control and the T/C (endpoint: mean survival time, dose: 400.0 mg/kg/injection, schedule: Q01DX001 (ip), vehicle: saline with Tween-80) is reported as 92 % of control.

`O=c1nc(/C=C(\O)c2ccccc2)ccn1C1OC(CO)C(O)C1O` (centres undefined) was tested, and the T/C (endpoint: mean survival time, dose: 12.5 mg/kg/injection, schedule: Q01DX005 (ip), vehicle: distilled water + Tween-80) was 105 % of control, the T/C (endpoint: mean survival time, dose: 25.0 mg/kg/injection, schedule: Q01DX005 (ip), vehicle: distilled water + Tween-80) was 94 % of control and the T/C (endpoint: mean survival time, dose: 50.0 mg/kg/injection, schedule: Q01DX005 (ip), vehicle: distilled water + Tween-80) was 91 % of control. The T/C (endpoint: mean survival time, dose: 100.0 mg/kg/injection, schedule: Q01DX005 (ip), vehicle: distilled water + Tween-80) was 94 % of control and the T/C (endpoint: mean survival time, dose: 200.0 mg/kg/injection, schedule: Q01DX005 (ip), vehicle: distilled water + Tween-80) was 98 % of control.

In the case of `CC(=O)OC1COC(n2c(O)c(N=NC(N)=S)c3cc([N+](=O)[O-])ccc32)C(OC(C)=O)C1OC(C)=O` (centres undefined), the T/C (endpoint: mean survival time, dose: 12.5 mg/kg/injection, schedule: Q01DX005 (ip), vehicle: other) is reported as 96 % of control, the T/C (endpoint: mean survival time, dose: 25.0 mg/kg/injection, schedule: Q01DX005 (ip), vehicle: other) is reported as 96 % of control and the T/C (endpoint: mean survival time, dose: 50.0 mg/kg/injection, schedule: Q01DX005 (ip), vehicle: other) is reported as 92 % of control. The T/C (endpoint: mean survival time, dose: 100.0 mg/kg/injection, schedule: Q01DX005 (ip), vehicle: other) was 88 % of control.

For `CC(=O)OC(c1ccc([N+](=O)[O-])cc1)c1ccccn1` (centres undefined), the T/C (endpoint: mean survival time, dose: 100.0 mg/kg/injection, schedule: Q04DX003 (ip), vehicle: other) was 96 % of control, the T/C (endpoint: mean survival time, dose: 200.0 mg/kg/injection, schedule: Q04DX003 (ip), vehicle: other) was 93 % of control and the T/C (endpoint: mean survival time, dose: 400.0 mg/kg/injection, schedule: Q04DX003 (ip), vehicle: other) was 93 % of control.
